Test results: patent US20250059179A1, “Heterocyclic Compounds and Methods of Use” (AMGEN INC., priority 2021, published 2025)
Like-named read-outs stand apart in the source and are kept apart here.

What was measured:
[1] = biological target: His-tagged KRAS G12D protein (Homo sapiens, UniProt P01116, G12D); test: KRAS G12D TR-FRET Assay; assay type: binding; settings: biotinylated KRPep-2d substrate, 10 μM GDP;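 also: europium anti-His antibody paired with streptavidin-d2 as FRET partners, initial 30 min incubation, then peptide 1 h and detection reagents 1 h, all at room temperature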
Chain of His-tagged KRAS G12D protein (P01116 1-188 isoform P01116-2 G12D): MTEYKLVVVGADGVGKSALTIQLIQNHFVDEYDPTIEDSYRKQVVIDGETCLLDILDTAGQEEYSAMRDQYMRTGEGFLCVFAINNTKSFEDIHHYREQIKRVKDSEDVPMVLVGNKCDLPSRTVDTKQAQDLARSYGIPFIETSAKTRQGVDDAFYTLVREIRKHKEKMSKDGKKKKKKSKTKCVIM

[2] = biological target: GDP-bound KRAS protein (aa 1-169), containing both G12D and C118A amino acid substitutions (Homo sapiens, UniProt P01116, C118A/G12D); test: KRAS G12D Coupled Nucleotide Exchange Assay; assay type: biochemical; settings: 2 h compound pre-incubation; SOS-mediated nucleotide exchange, cRAF AlphaScreen readout;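 also: IC50 obtained by fitting the AlphaScreen signal with a four-parameter logistic curve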
Chain of GDP-bound KRAS protein (aa 1-169), containing both G12D and C118A amino acid substitutions (P01116 1-169 isoform P01116-2 G12D/C118A): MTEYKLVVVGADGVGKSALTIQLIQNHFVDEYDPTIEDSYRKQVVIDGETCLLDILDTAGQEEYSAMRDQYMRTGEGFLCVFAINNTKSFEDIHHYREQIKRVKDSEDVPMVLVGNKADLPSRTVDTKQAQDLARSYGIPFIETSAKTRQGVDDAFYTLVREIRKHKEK

[3] = test system: Phosphorylation of ERK1/2 in A-427 cells; test: Phospho-ERK1/2 MSD Assay; assay type: cell-based; settings: 2 h compound treatment, read-out: pERK (A427 cells) IC50
Protocol: A-427 (ATCC® HTB-53™) cells were cultured in RPMI 1640 Medium (ThermoFisher Scientific 11875093) containing 10% fetal bovine serum (ThermoFisher Scientific 16000044) and 1× penicillin-streptomycin-glutamine (ThermoFisher Scientific 10378016). Sixteen hours prior to compound treatment, A-427 cells were seeded in 96-well cell culture plates at a density of 25,000 cells/well and incubated at 37° C., 5% CO2. A compound dose-response titration was diluted in growth media, added to appropriate wells of a cell culture plate, and then incubated at 37° C., 5% CO2 for 2 h. Following compound treatment, cells were washed with ice-cold Dulbecco's phosphate-buffered saline, no Ca^2+ or Mg^2+ (ThermoFisher Scientific 14190144), and then lysed in RIPA buffer (50 mM Tris-HCl pH 7.5, 1% Igepal, 0.5% sodium deoxycholate, 150 mM NaCl, and 0.5% sodium dodecyl sulfate) containing protease inhibitors (Roche 4693132001) and phosphatase inhibitors (Roche 4906837001). Phosphorylation of ERK1/2 in compound-treated lysates was assayed using Phospho-ERK1/2 Whole Cell Lysate kits (Meso Scale Discovery K151DWD) according to the manufacturer's protocol. Assay plates were read on a Meso Scale Discovery Sector Imager 6000, and data were analyzed using a 4-parameter logistic model to calculate IC50 values.

SMILES | IC50 [1] [µM] | Avg 2 h Coupled Exchange IC50 [2] [µM] | IC50 ([3]; Homo sapiens, A-427, 2 h) [µM] | IC50 [3] [µM]
C=Cc1cc2c(N3[C@@H]4CC[C@H]3CNC4)nc(OC[C@@]34CCCN3C[C@H](F)C4)nc2c(F)c1-c1ccc(F)c2sc(N)nc12 [Example 151, 4-(4-((1R,5S)-3,8-diazabicyclo[3.2.1]octan-8-yl)-8-fluoro-2-(((2R,7aS)-2-fluorotetrahydro-1H-pyrrolizin-7a(5H)-yl)methoxy)-6-vinylquinazolin-7-yl)-7-fluorobenzo[d]thiazol-2-amine] | 0.005 | 0.005 | 0.033 | –
Nc1nc2c(-c3c(Cl)cc4c(N5C6CCNCC5CC6)nc(OC[C@@]56CCCN5C[C@H](F)C6)nc4c3F)ccc(F)c2s1 (single isomer, unassigned) [Example 32] | 0.054 | 0.016 | – | 0.164
N#Cc1c(OCC23CCCN2C[C@H](F)C3)nc2c(F)c(-c3ccc(F)c4sc(N)nc34)c(Cl)cc2c1N1[C@@H]2CC[C@H]1CNC2 (stereo partly drawn) [Example 159, 7-(2-amino-7-fluorobenzo[d]thiazol-4-yl)-4-((1R,5S)-3,8-diazabicyclo[3.2.1]octan-8-yl)-6-chloro-8-fluoro-2-(((2R)-2-fluorotetrahydro-1H-pyrrolizin-7a(5H)-yl)methoxy)quinoline-3-carbonitrile] | 0.174 | 0.088 | > 10 | –
Nc1nc2c(-c3c(Cl)cc4c(N5C[C@H]6C[C@@H](C5)N6)nc(OC[C@@]56CCCN5C[C@H](F)C6)nc4c3F)ccc(F)c2s1 [Example 6, 4-(4-((1R,5S)-3,6-diazabicyclo[3.1.1]heptan-3-yl)-6-chloro-8-fluoro-2-(((2R,7aS)-2-fluorotetrahydro-1H-pyrrolizin-7a(5H)-yl)methoxy)quinazolin-7-yl)-7-fluorobenzo[d] thiazol-2-amine] | 0.005 | 0.005 | 0.364 | –
Nc1nc2c(-c3ccc4c(N5[C@@H]6CC[C@H]5CNC6)nc(OC[C@@]56CCCN5C[C@H](F)C6)nc4c3)ccc(F)c2s1 [Example 135, 4-(4-((1R,5S)-3,8-diazabicyclo[3.2.1]octan-8-yl)-2-(((2R,7aS)-2-fluorotetrahydro-1H-pyrrolizin-7a(5H)-yl)methoxy)quinazolin-7-yl)-7-fluorobenzo[d]thiazol-2-amine] | 0.207 | 0.064 | > 10 | –
Nc1nc2c(-c3c(Cl)cc4c(N5[C@@H]6CC[C@H]5CNC6)nc(OCC56CCCN5CC(F)(F)C6)nc4c3F)ccc(F)c2s1 (stereo partly drawn) [Example 9, 4-(4-((1R,5S)-3,8-diazabicyclo[3.2.1]octan-8-yl)-6-chloro-2-((2,2-difluorotetrahydro-1H-pyrrolizin-7a(5H)-yl)methoxy)-8-fluoroquinazolin-7-yl)-7-fluorobenzo[d] thiazol-2-amine] | 0.007 | 0.009 | 0.403 | –
CN1CCC[C@H]1COc1nc(N2C3CNCC2C3)c2cc(Cl)c(-c3cccc4sc(N)nc34)c(F)c2n1 [Example 18, 4-(4-(3,6-diazabicyclo[3.1.1]heptan-6-yl)-6-chloro-8-fluoro-2-(((S)-1-methylpyrrolidin-2-yl)methoxy)quinazolin-7-yl)benzo[d]thiazol-2-amine] | 0.158 | 0.049 | > 25 | –
CN1CCC[C@H]1COc1nc(N2CC3CC(C2)N3)c2cc(Cl)c(-c3cccc4sc(N)nc34)c(F)c2n1 [Example 5, 4-(4-(3,6-diazabicyclo[3.1.1]heptan-3-yl)-6-chloro-8-fluoro-2-(((S)-1-methylpyrrolidin-2-yl)methoxy)quinazolin-7-yl)benzo[d]thiazol-2-amine] | 0.01 | 0.005 | 2.63 | –
Nc1nc2c(-c3c(Cl)cc4c(N5C[C@H]6CC[C@@H](C5)N6)cc(OC[C@@]56CCCN5C[C@H](F)C6)nc4c3F)ccc(F)c2s1 [Example 161, 4-(4-((1R,5S)-3,8-Diazabicyclo[3.2.1]octan-3-yl)-6-chloro-8-fluoro-2-(((2R,7aS)-2-fluorotetrahydro-1H-pyrrolizin-7a(5H)-yl)methoxy)quinolin-7-yl)-7-fluorobenzo[d]thiazol-2-amine] | 0.057 | 0.024 | 5.79 | –

Second part, led by results:

IC50 [1] [µM] | Avg 2 h Coupled Exchange IC50 [2] [µM] | IC50 ([3]; Homo sapiens, A-427, 2 h) [µM] | SMILES | IC50 [3] [µM]
0.06 | 0.036 | > 10 | C[C@@]1(COc2nc(N3CCNCC3)c3cc(Cl)c(-c4cccc5sc(N)nc45)c(F)c3n2)CCCN1 [Example 73, 4-(6-chloro-8-fluoro-2-(((S)-2-methyl-pyrrolidin-2-yl)methoxy)-4-(piperazin-1-yl)quinazolin-7-yl)benzo[d] thiazol-2-amine] | –
0.011 | 0.004 | 3.1 | Nc1nc2c(-c3c(Cl)cc4c(N5CC6CC5CCN6)nc(OC[C@@]56CCCN5C[C@H](F)C6)nc4c3F)ccc(F)c2s1 (stereo partly drawn) [Example 34, 4-(4-(2,6-diazabicyclo[3.2.1]octan-6-yl)-6-chloro-8-fluoro-2-(((2R,7aS)-2-fluorotetrahydro-1H-pyrrolizin-7a(5H)-yl)methoxy)quinazolin-7-yl)-7-fluorobenzo[d] thiazol-2-amine] | –
0.121 | 0.025 | 6.93 | C=Cc1cc2c(N3CCNCC3)nc(OC[C@@H]3CCCN3C)nc2c(F)c1-c1cccc2sc(N)nc12 [Example 149, 4-(8-fluoro-2-(((S)-1-methylpyrrolidin-2-yl)methoxy)-4-(piperazin-1-yl)-6-vinylquinazolin-7-yl)benzo[d]thiazol-2-amine] | –
0.011 | 0.014 | 0.977 | Nc1nc2c(-c3c(Cl)cc4c(N5CCNC6CC65)nc(OC[C@@]56CCCN5C[C@H](F)C6)nc4c3F)ccc(F)c2s1 (stereo partly drawn) [Example 39, 4-(4-(2,5-diazabicyclo[4.1.0]heptan-2-yl)-6-chloro-8-fluoro-2-(((2R,7aS)-2-fluorotetrahydro-1H-pyrrolizin-7a(5H)-yl)methoxy)quinazolin-7-yl)-7-fluorobenzo[d] thiazol-2-amine] | –
0.217 | 0.095 | > 25 | CCc1cc2c(N3CCNCC3)nc(OC[C@@H]3CCCN3C)nc2c(F)c1-c1cccc2sc(N)nc12 [Example 152, 4-(6-Ethyl-8-fluoro-2-(((S)-1-methylpyrrolidin-2-yl)methoxy)-4-(piperazin-1-yl)quinazolin-7-yl)benzo[d]thiazol-2-amine] | –
0.055 | 0.042 | 20.2 | Nc1nc2c(-c3c(Cl)cc4c(N5CCNCC5)nc(OC[C@]56CCCN5[C@@H](CO)CC6)nc4c3F)cccc2s1 [Example 50, ((3R,7aR)-7a-(((7-(2-aminobenzo[d]thiazol-4-yl)-6-chloro-8-fluoro-4-(piperazin-1-yl)quinazolin-2-yl)oxy)methyl)hexahydro-1H-pyrrolizin-3-yl)methanol] | –
0.01 | 0.005 | 4.9 | Nc1nc2c(-c3c(Cl)cc4c(N5CCCNC(=O)C5)nc(OC[C@@]56CCCN5C[C@H](F)C6)nc4c3F)ccc(F)c2s1 [Example 4, 4-(7-(2-amino-7-fluorobenzo[d]thiazol-4-yl)-6-chloro-8-fluoro-2-(((2R,7aS)-2-fluorotetrahydro-1H-pyrrolizin-7a(5H)-yl)methoxy)quinazolin-4-yl)-1,4-diazepan-2-one] | –
0.134 | 0.059 | 16 | CN1CC[C@H]1COc1nc(N2CCNCC2)c2cc(Cl)c(-c3cccc4sc(N)nc34)c(F)c2n1 [Example 52, 4-(6-chloro-8-fluoro-2-(((S)-1-methylazetidin-2-yl)methoxy)-4-(piperazin-1-yl)quinazolin-7-yl)benzo[d] thiazol-2-amine] | –
0.079 | 0.037 | 2.3 | CN1CCC[C@H]1COc1nc(C2=CCNCC2)c2cc(Cl)c(-c3cccc4sc(N)nc34)c(F)c2n1 [Example 144, 4-(6-chloro-8-fluoro-2-(((S)-1-methylpyrrolidin-2-yl)methoxy)-4-(1,2,3,6-tetrahydropyridin-4-yl)quinazolin-7-yl)benzo[d]thiazol-2-amine] | –
0.414 | 0.075 | > 25 | CN1CC[C@@H](COc2nc(N3CCNCC3)c3cc(Cl)c(-c4cccc5sc(N)nc45)c(F)c3n2)C1 [Example 53, 4-(6-chloro-8-fluoro-2-(((R)-1-methyl-pyrrolidin-3-yl)methoxy)-4-(piperazin-1-yl)quinazolin-7-yl)benzo[d] thiazol-2-amine] | –
0.266 | 0.118 | 5.67 | Nc1nc2c(-c3c(Cl)cc4c(N5CCNCC5)nc(OC[C@@H]5CCCN5CCF)nc4c3F)cccc2s1 [Example 56, 4-(6-chloro-8-fluoro-2-(((S)-1-(2-fluoroethyl)pyrrolidin-2-yl)methoxy)-4-(piperazin-1-yl)quinazolin-7-yl)benzo[d] thiazol-2-amine] | –
